ChEMBL document CHEMBL3414446, “Neoechinulin B and its analogues as potential entry inhibitors of influenza viruses, targeting viral hemagglutinin” (Eur J Med Chem, 2015)
Activity calls are given as the source filed them. The calls are words filed in the database; no cut-off is given here.

Columns and labels:
MDCK [1] = experiment: Antiviral activity against influenza A virus A/WSN/33 (H1N1) infected in MDCK cells assessed as nucleoprotein level in infected cells at 2 to 8 hrs viral genome replication and translation step at 100 uM by Time-of-addition experiment; type: functional, cell-based; settings: Influenza A virus (A/WSN/1933(H1N1))
[2] = system: Influenza A virus (A/WSN/1933(H1N1)); experiment: Inhibition of influenza A virus A/WSN/33 (H1N1) Hemagglutinin 1 binding to sialic acid receptor assessed as response unit at 20 ug/ml by surface plasmon resonance assay
[3] = target: Hemagglutinin (Influenza A virus) (UniProt B4URE7); experiment: Inhibition of influenza A virus A/WSN/33 (H1N1) Hemagglutinin 1 binding to sialic acid receptor assessed as response unit at 0.625 ug/ml by surface plasmon resonance assay; settings: Influenza A virus (A/WSN/1933(H1N1))
[4] = Binding affinity to influenza A virus A/WSN/33 (H1N1) Hemagglutinin 1 binding to sialic acid receptor by surface plasmon resonance assay; design: species or system Influenza A virus (A/WSN/1933(H1N1))
[5] = target: Hemagglutinin (Influenza A virus) (UniProt B4URE7); experiment: Inhibition of influenza A virus A/WSN/33 (H1N1) Hemagglutinin 1 binding to sialic acid receptor assessed as response unit at 5 ug/ml by surface plasmon resonance assay; settings: Influenza A virus (A/WSN/1933(H1N1))
[6] = system: Influenza A virus (A/WSN/1933(H1N1)); experiment: Inhibition of influenza A virus A/WSN/33 (H1N1)-induced aggregation of chicken erythrocytes after 30 mins by Hemagglutination inhibition assay; type: functional
[7] = target: Hemagglutinin (Influenza A virus) (UniProt B4URE7); experiment: Inhibition of influenza A virus A/WSN/33 (H1N1) Hemagglutinin transfected in Human HeLa cells assessed as polykaryon formation at 100 uM after 15 mins by microscopy; type: cell-based; settings: Influenza A virus (A/WSN/1933(H1N1))
MDCK [8] = experiment: (§1) Antiviral activity against influenza A virus A/WSN/33 (H1N1) infected in MDCK cells assessed as inhibition of plaque formation after 3 days at 37 degC; type: functional, cell-based; settings: Influenza A virus (A/WSN/1933(H1N1))
[9] = Cytotoxicity against MDCK cells assessed as cell growth after 40 hrs by CellTiter-Glo assay; type: cell-based, Canis lupus familiaris; settings: dog
Hemagglutinin = Hemagglutinin (Influenza A virus, UniProt B4URE7); experiment: Binding affinity to influenza A virus A/WSN/33 (H1N1) Hemagglutinin by surface Plasmon resonance assay; design: species or system Influenza A virus (A/WSN/1933(H1N1))
[10] = Antiviral activity against influenza A virus A/WSN/33 (H1N1) infected in MDCK cells assessed as reduction in cytopathic effect after 48 hrs by plaque assay; type: functional, cell-based, Influenza A virus (A/WSN/1933(H1N1))
[11] = Antiviral activity against influenza A virus A/WSN/33 (H1N1) infected in MDCK cells assessed as reduction in cytopathic effect at 100 uM after 48 hrs by plaque assay; type: functional, Influenza A virus (A/WSN/1933(H1N1))
MDCK [12] = experiment: Antiviral activity against influenza A virus A/WSN/33 (H1N1) infected in MDCK cells assessed as nucleoprotein level in infected cells at 0 to 2 hrs virus entry step at 100 uM by Time-of-addition experiment; type: functional, cell-based; settings: Influenza A virus (A/WSN/1933(H1N1))
[13] = system: Influenza A virus (A/WSN/1933(H1N1)); experiment: Inhibition of influenza A virus A/WSN/33 (H1N1) […] binding to sialic acid receptor by surface Plasmon resonance assay
MDCK [14] = experiment: Antiviral activity against influenza A virus A/WSN/33 (H1N1) infected in MDCK cells assessed as inhibition of plaque formation for 1 hr at 4 degC; type: functional, cell-based; settings: Influenza A virus (A/WSN/1933(H1N1))
[15] = target: Hemagglutinin (Influenza A virus) (UniProt B4URE7); experiment: Inhibition of influenza A virus A/WSN/33 (H1N1) Hemagglutinin 1 binding to sialic acid receptor assessed as response unit at 1.25 ug/ml by surface plasmon resonance assay; settings: Influenza A virus (A/WSN/1933(H1N1))
[16] = target: Hemagglutinin (Influenza A virus) (UniProt B4URE7); experiment: Inhibition of influenza A virus A/WSN/33 (H1N1) Hemagglutinin 1 binding to sialic acid receptor assessed as response unit at 2.5 ug/ml by surface plasmon resonance assay; settings: Influenza A virus (A/WSN/1933(H1N1))
MDCK [17] = experiment: Antiviral activity against influenza A virus A/WSN/33 (H1N1) infected in MDCK cells assessed as nucleoprotein level in infected cells at […] progeny virion release step at 100 uM by Time-of-addition experiment; type: functional, cell-based; settings: Influenza A virus (A/WSN/1933(H1N1))
[18] = system: Influenza A virus (A/WSN/1933(H1N1)); experiment: Inhibition of influenza A virus A/WSN/33 (H1N1) Hemagglutinin 1 binding to sialic acid receptor assessed as response unit at 10 ug/ml by surface plasmon resonance assay
[19] = as §1; type: functional, cell-based, Influenza A virus (A/WSN/1933(H1N1)); settings: 72 h

SMILES	CC50 at 40 h [9]	inhibition at 100 µM [11]	further results
C=CC(C)(C)c1[nH]c2ccccc2c1/C=c1\[nH]c(=O)c(=C)[nH]c1=O [NEOECHINULIN B]	> 200 µM	70.5%	inhibition (MDCK [1]): inactive; Activity [2]: 66.9; Activity [3]: -3.9; Kd [4]: 451 µM; Activity [5]: 8.9; inhibition [6]: Dose-dependent effect; Activity [7]: inactive; inhibition (MDCK [8]): Dose-dependent effect; Kd (Hemagglutinin): 32 µM; IC50 [10]: 27.4 µM; Activity (MDCK [12]): Active; Activity [13]: Active; inhibition (MDCK [14]): Dose-dependent effect; Activity [15]: -4; Activity [16]: 0.8; inhibition (MDCK [17]): inactive; Activity [18]: 27.7
C=CC(C)(C)c1[nH]c2c(C[C@H](O)C(C)(C)O)cccc2c1/C=C1\NC(=O)[C@H](C)NC1=O	> 200 µM	15.1%	–
C=CC(C)(C)c1[nH]c2ccc(C[C@H](O)C(C)(C)O)cc2c1/C=C1\NC(=O)C(=O)NC1=O	> 200 µM	6.45%	–
C=CC(C)(C)c1[nH]c2c(C[C@H](O)C(C)(C)OC)cccc2c1/C=C1\NC(=O)[C@H](C)NC1=O	> 200 µM	15.6%	–
C=CC(C)(C)c1[nH]c2ccccc2c1/C=C1\NC(=O)C(=O)NC1=O	> 200 µM	6.69%	–
C=CC(C)(C)c1[nH]c2ccccc2c1C(OC)[C@@H]1NC(=O)[C@H](C)NC1=O (stereo not given in full)	> 200 µM	18.3%	–
C=CC(C)(C)c1[nH]c2ccc(C[C@H](O)C(C)(C)OC)cc2c1/C=C1\NC(=O)[C@H](C)NC1=O	> 200 µM	15.2%	–
CCOC(=O)c1c(CSc2ccccc2)n(C)c2cc(Br)c(O)c(CN(C)C)c12 [UMIFENOVIR]	–	–	Activity [2]: 102; Activity [3]: -1.8; Kd [4]: 0.081 µM; Activity [5]: 20.7; Activity [15]: 1.2; Activity [16]: 7.5; Activity [18]: 48.7
CC(C)=CCn1cc(C[C@@H]2NC(=O)[C@H](C)NC2=O)c2ccccc21	> 200 µM	25.4%	–
C=CC(C)(C)n1cc(C[C@@H]2NC(=O)[C@H](C)NC2=O)c2ccccc21	> 200 µM	17.9%	–
C=CC(C)(C)c1[nH]c2ccccc2c1C(O)[C@@H]1NC(=O)[C@H](C)NC1=O (stereo not given in full)	> 200 µM	3.38%	–
C=CC(C)(C)c1[nH]c2c(CC=C(C)C)cccc2c1/C=c1\[nH]c(=O)c(=C)[nH]c1=O	> 200 µM	100%	IC50 [10]: 51.4 µM
C=CC(C)(C)c1[nH]c2ccccc2c1/C=C1\NC(=O)[C@H](CO)NC1=O [CRISTATUMIN A]	> 200 µM	20.6%	–
C=CC(C)(C)c1[nH]c2ccc(C[C@H](OC(C)=O)C(C)(C)O)cc2c1/C=C1\NC(=O)[C@H](C)NC1=O	> 200 µM	2.5%	–
COc1cc(/C=C/C(=O)CC(=O)/C=C/c2ccc(O)c(OC)c2)ccc1O [CURCUMIN]	–	–	Activity [2]: 78.8; Activity [3]: 0.8; Kd [4]: 507 µM; Activity [5]: 16.1; Activity [15]: 2.7; Activity [16]: 6.8; Activity [18]: 36.4
NC(=O)c1ncn([C@@H]2O[C@H](CO)[C@@H](O)[C@H]2O)n1 [RIBAVIRIN]	> 200 µM	–	–
NC12CC3CC(CC(C3)C1)C2 [AMANTADINE]	> 200 µM	–	–
C=CC(C)(C)c1[nH]c2ccccc2c1C[C@@H]1NC(=O)[C@H](CO)NC1=O	> 200 µM	13%	–
C=CC(C)(C)c1[nH]c2ccc(C[C@H](O)C(C)(C)OC)cc2c1/C=c1\[nH]c(=O)c(=C)[nH]c1=O	> 200 µM	5%	–
C=CC(C)(C)c1[nH]c2ccc(C[C@H](O)C(C)(C)OC)cc2c1C[C@@H]1NC(=O)[C@H](C)NC1=O	> 200 µM	5.69%	–
C=CC(C)(C)c1[nH]c2c(CC=C(C)C)cc(CC=C(C)C)cc2c1C[C@@H]1NC(=O)[C@H](C)NC1=O [ECHINULIN]	> 200 µM	13%	–
C=CC(C)(C)c1[nH]c2ccccc2c1/C=C1\NC(=O)[C@H](C)NC1=O [NEOECHINULIN A]	–	–	Activity [3]: 1; Activity [5]: 26.5; Kd (Hemagglutinin): 98 µM; Activity [15]: 4.5; Activity [16]: 12.3
C=CC(C)(C)c1[nH]c2ccc(C[C@H](OC(C)=O)C(C)(C)O)cc2c1C[C@@H]1NC(=O)[C@H](C)NC1=O	> 200 µM	3.48%	–
C=CC(C)(C)c1[nH]c2ccccc2c1C[C@@H]1NC(=O)[C@H](C)NC1=O [PREECHINULIN]	> 200 µM	14.9%	–
C=CC(C)(C)c1[nH]c2ccccc2c1/C=C1\NC(=O)[C@@](CO)(OC)NC1=O	> 200 µM	14.3%	–
C=CC(C)(C)c1[nH]c2ccccc2c1/C=C1\NC(=O)[C@@](C)(OC)NC1=O	> 200 µM	82.4%	IC50 [10]: 68.8 µM
C=CC(C)(C)c1[nH]c2ccc(CC=C(C)C)cc2c1/C=C1\NC(=O)[C@H](C)NC1=O [ISOECHINULIN A]	> 200 µM	77.6%	IC50 [10]: 42.7 µM
C[C@@H]1NC(=O)[C@H](Cc2c[nH]c3ccccc23)NC1=O	> 200 µM	2.31%	–
CCOC(=O)C1=C[C@@H](OC(CC)CC)[C@H](NC(C)=O)[C@@H](N)C1 [OSELTAMIVIR]	> 200 µM	–	IC50 [19]: 15 µM; IC50 [10]: 46.5 µM
